Reference: US9451909B2, “System and method for detecting amyloid proteins” (Cognoptix, Inc., priority 2010, dated 2016)

Experiments:
[1] = biological target: T1, aggregated Aβ(1-42) peptide (Homo sapiens, UniProt P05067); experiment: In vitro fluorescence lifetime measurements of Compound #11 with aggregated Aβ peptide (SAPPHIRE II device); format: binding
T1 construct: Aggregated Aβ peptide was prepared by dissolving Aβ(1-42) in PBS pH 7.4
Experimental: (§1) In accordance with an embodiment of the invention, in vitro studies on aggregated Aβ peptides bound to Compound #11 were performed. Fluorescence lifetime measurements of Compound #11 with aggregated Aβ peptide were performed using a device in accordance with an embodiment of the invention. FIG. 8A is a fluorescence lifetime image showing Compound #11 and Compound #11 bound to aggregated Aβ peptide, with their corresponding fluorescence lifetime histograms shown in FIG. 8B, in accordance with an embodiment of the invention. By fitting the lifetime histograms, the decay rates are determined. […] An experimental description follows.
(§2) The purpose of this in vitro study was to identify the optical signature of the Compound #11 amyloid-binding compound, and to characterize its fluorescence properties when bound to aggregated Aβ peptide. […]
(§3) The Neuroptix SAPPHIRE II device (Neuroptix Corporation, Acton, Mass., U.S.A.) is a purpose built device for clinical studies in humans, which was adapted for in vitro measurements for this experiment. It employs a confocal scanning mechanism combined with fluorescence lifetime spectroscopy that allows differentiation of fluorophores. The device allows 1) scanning of the optical beam to specific locations in the anterior segments of the eye, such as the supranucleus and 2) identification of fluorescent fluorophores based on fluorescence lifetime measurements.
(§4) Aggregated Aβ peptide was prepared by dissolving Aβ(1-42) in PBS pH 7.4 to a final concentration of 100 μM. […] The solution was transferred to 5 mL vial and the fluorescence measurements were performed at 25° C.
(§5) The sample consisting of Compound #11 was placed in front of the Neuroptix SAPPHIRE II Device. Once the location of the scan in the sample was determined, a raster scan was performed to obtain fluorescence lifetime measurements. […] The shading that makes up most of the image background represents a lifetime decay of 1.4 nsec, which corresponds to that of the fluorescence amyloid-binding compound. […]

[2] = tested on: aggregated Aβ(1-42) peptide; experiment: as above; format: binding; conditions: unbound; 4 μM Compound #11, PBS, 25° C.
Experimental: as §1, §2, §3, §4, §5

[3] = Ocular pharmacokinetics study, topical ointment, fluorescence lifetime and intensity measurements in the lens; format: in vivo, Dutch-belted rabbits
Experimental: Ocular pharmacokinetic investigation of dose response via topical administration of fluorescence amyloid-binding compound was performed in Dutch-belted rabbits. The rabbits were tested each day over a 4 day period using Compound #11 amyloid-binding compound in an ointment. Two animals were dosed in the right eye with Compound #11 (0.5%) in ointment form. One animal was untreated and used as control animal. The animals were dosed at specific time points for four days and tested with SAPPHIRE II system for fluorescence intensity and lifetime measurements at the beginning and end of each day.
All animals were dosed with Compound #11 via topical ocular application and tested in the right eye. Animals were anesthetized and manually held on a platform in front of the Neuroptix SAPPHIRE II device. Gross positioning was done by the animal handler, and fine tuning of the measurement location was done by the Neuroptix SAPPHIRE II operator. Once aligned, the SAPPHIRE II operator initiated the measurement sequence. Baseline measurements were made on the animals before dosing, and then at the beginning and end of each day (Table 1).
Fluorescence lifetime and intensity measurements were performed in the eye at the beginning and at the end of each day. The measurements entailed scanning the rabbit eye axially (z-scan) to obtain inter-ocular information and a planar scan (xy-scan) to perform lifetime decay measurements in a certain region of the eye, which is the lens nucleus in this case.
Once the location of interest was identified, Time Correlation Single Photon Counting (TCSPS) was initiated while performing the xy-scan. The fluorescence lifetime images were then obtained where the decay lifetime histogram was obtained for each pixel location. The calculated decay times were color coded in the fluorescence lifetime image. Each measurement was performed three times. The frequency count of photons of specific decay rates were calculated from the decay rates frequency that of the Compound #11 signature obtained in the xy-scan and averaged over the three measurements. […] The device was specifically designed for human use but the platform was slightly modified for holding the rabbits.
Group 1: Animals were anesthetized with subcutaneous injection of Dexdomitor (0.5 mg/kg), Ketamine (5 mg/kg). A ribbon of ointment approximately ½ inch long was then applied to the lower right eyelid of each animal in the test group three times a day for four days.

[4] = Fluorescence spectra and fluorescence lifetime histogram of Compound #11; format: physicochemical
Text: In an embodiment according to the invention, the light source may be configured to emit light of an appropriate wavelength for a peak region of a fluorescent excitation spectrum for the amyloid-binding compound bound to the amyloid protein in the eye, and the optical unit may be configured to detect light of an appropriate wavelength for a peak region of a fluorescent emission spectrum for the amyloid-binding compound bound to the amyloid protein in the eye. For example, where the amyloid-binding compound is Compound #11, the excitation spectrum has a peak of about 470 nm, and the light source may be configured to emit light within plus or minus about 20 nm of the peak of about 470 nm, such as within plus or minus 5 nm, plus or minus 10 nm, plus or minus 15 nm or plus or minus 20 nm of 470 nm. Further, the emission spectrum for Compound #11 has a peak of about 580 nm, and the optical unit may be configured to detect light within plus or minus about 20 nm of the peak of about 580 nm, such as within plus or minus 5 nm, plus or minus 10 nm, plus or minus 15 nm or plus or minus 20 nm of 580 nm. In general, there is typically a shift between the peak of the excitation spectrum and the peak of the emission spectrum of a fluorescent compound. […] For example, an emission spectrum having a peak greater than about 500 nm is advantageous for distinguishing from the natural autofluorescence of the eye. […] FIG. 12 is an emission spectrum of the fluorescent amyloid-binding compound Compound #11 when excited at 470 nm, in accordance with an embodiment of the invention. Other excitation and emission spectra that may be used will be apparent to those of skill in the art based on the foregoing.
A fluorescent histogram of the fluorescent amyloid-binding compound Compound #11 is shown in FIG. 6, obtained by a device in accordance with an embodiment of the invention. Single exponential fitting results in a lifetime decay rate of 2 nsec.

[5] = biological target: aggregated beta-amyloid (Aβ) peptide (Homo sapiens, UniProt P05067); conditions: cited from earlier work
Chain of aggregated beta-amyloid (Aβ) peptide (P05067 672-713 limits assumed): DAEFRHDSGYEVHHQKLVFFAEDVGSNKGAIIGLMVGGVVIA

T1 sequence (P05067 672-713): as the sequence (P05067 672-713 limits assumed) above

difference in fluorescence lifetime, bound vs unbound ([1]; Compound #11 vs Compound #11 bound to aggregated Aβ peptide): 0.85 nsec
fluorescence lifetime decay (time decay rate) of compound bound to aggregated Aβ peptide ([1]; bound to aggregated Aβ(1-42) 5 μM, 4 μM Compound #11, 25° C.): 2.25 nsec
fluorescence lifetime decay (time decay rate) of unbound compound [2]: 1.4 nsec
fluorescence signal after repetitive topical administration ([3]; 5 mg/g in ointment form, three times a day for four days): Detectable fluorescence signal
decay rate in lifetime image of the lens (xy-scan) ([3]; animal 1003, end of fourth day): 2 nsec
change of fluorescence in the lens nucleus over four days ([3]; measured at beginning and end of each day, 4 days, rabbits 1002 and 1003): increase of Compound #11 fluorescence
time of stay in the lens nucleus ([3]; repetitive topical administration): at least 12 hours
accumulation in the lens nucleus ([3]; repetitive topical administration, after several hours of application): tended to accumulate in the nucleus
excitation spectrum peak [4]: about 470 nm
emission spectrum peak ([4]; excited at 470 nm): about 580 nm
lifetime decay rate ([4]; single exponential fitting of fluorescent histogram (FIG. 6)): 2 nsec
Compound: COCCOCCOCCOC(=O)/C(C#N)=C/c1ccc2cc(N3CCCCC3)ccc2c1 [Compound #11, (E)-2-(2-(2-methoxyethoxy)ethoxy)ethyl-2-cyano-3-(6-(piperidin-1-yl)naphthalen-2-yl)acrylate]
penetration of the cornea and detection in the lens ([3]; topical ocular, rabbit eyes): penetrate the cornea and be detected by the device in the lens
binding to aggregated beta-amyloid (Aβ) peptide [5]: has been shown to bind
